Results taken from the NIST ThermoML archive (doi:10.1016/j.tca.2018.10.018).

Assay: xn = mol fraction of the nth substance listed
Conditions: Liquid; for viscosity: Capillary tube (Ostwald / Ubbelohde) method; for mass density: Siemens Coriolis flowmeter

CCCCCCCCCC(=O)OC [methyl decanoate] + CCCCCCC
Conditions | mass density, 298.15 K [kg/m3] | mass density, 308.15 K [kg/m3] | mass density, 318.15 K [kg/m3] | viscosity, 298.15 K [mPa·s] | viscosity, 308.15 K [mPa·s] | viscosity, 318.15 K [mPa·s]
100 kPa, x1 = 0.101 | 706 | 698 | 689 | 0.465 | 0.394 | 0.339
100 kPa, x1 = 0.202 | 730 | 722 | 713 | 0.549 | 0.454 | 0.375
100 kPa, x1 = 0.299 | 753 | 744 | 736 | 0.655 | 0.52 | 0.418
100 kPa, x1 = 0.403 | 773 | 765 | 757 | 0.779 | 0.613 | 0.486
100 kPa, x1 = 0.501 | 792 | 784 | 776 | 0.912 | 0.716 | 0.565
100 kPa, x1 = 0.601 | 810 | 801 | 793 | 1.071 | 0.843 | 0.669
100 kPa, x1 = 0.698 | 826 | 818 | 809 | 1.257 | 0.999 | 0.8
100 kPa, x1 = 0.799 | 841 | 833 | 825 | 1.461 | 1.173 | 0.951
100 kPa, x1 = 0.902 | 855 | 847 | 839 | 1.67 | 1.351 | 1.104
100 kPa, x1 = 1 | 868 | 860 | 853 | 1.934 | 1.628 | 1.38
3000 kPa, x1 = 0.101 | 709 | 700 | 692 | 0.483 | 0.411 | 0.355
3000 kPa, x1 = 0.202 | 734 | 724 | 717 | 0.575 | 0.475 | 0.394
3000 kPa, x1 = 0.299 | 756 | 747 | 739 | 0.686 | 0.547 | 0.441
3000 kPa, x1 = 0.403 | 776 | 767 | 760 | 0.815 | 0.644 | 0.514
3000 kPa, x1 = 0.501 | 795 | 786 | 778 | 0.955 | 0.752 | 0.597
3000 kPa, x1 = 0.601 | 812 | 804 | 796 | 1.119 | 0.885 | 0.704
3000 kPa, x1 = 0.698 | 828 | 820 | 812 | 1.31 | 1.045 | 0.84
3000 kPa, x1 = 0.799 | 843 | 835 | 827 | 1.52 | 1.224 | 0.995
3000 kPa, x1 = 0.902 | 857 | 849 | 841 | 1.735 | 1.407 | 1.152
3000 kPa, x1 = 1 | 870 | – | 854 | 1.992 | – | 1.417
3010 kPa, x1 = 1 | – | 862 | – | – | 1.675 | –
6000 kPa, x1 = 0.101 | 712 | 703 | 696 | 0.502 | 0.428 | 0.371
6000 kPa, x1 = 0.202 | 736 | 727 | 720 | 0.599 | 0.496 | 0.414
6000 kPa, x1 = 0.299 | 758 | 750 | 742 | 0.717 | 0.574 | 0.465
6000 kPa, x1 = 0.403 | 779 | 770 | 763 | 0.851 | 0.676 | 0.541
6000 kPa, x1 = 0.501 | 798 | 789 | 781 | 0.996 | 0.789 | 0.629
6000 kPa, x1 = 0.601 | 815 | 806 | 799 | 1.166 | 0.926 | 0.74
6000 kPa, x1 = 0.698 | 831 | 822 | 815 | 1.364 | 1.091 | 0.88
6000 kPa, x1 = 0.799 | 846 | 837 | 830 | 1.58 | 1.276 | 1.039
6000 kPa, x1 = 0.902 | 859 | 851 | 843 | 1.8 | 1.463 | 1.199
6000 kPa, x1 = 1 | 872 | 864 | 856 | 2.058 | 1.727 | 1.462
9000 kPa, x1 = 0.101 | 715 | 706 | 699 | 0.519 | 0.446 | 0.386
9000 kPa, x1 = 0.202 | 739 | 730 | 723 | 0.623 | 0.518 | 0.433
9000 kPa, x1 = 0.299 | 761 | 752 | 745 | 0.746 | 0.6 | 0.489
9000 kPa, x1 = 0.403 | 781 | 773 | 765 | 0.886 | 0.707 | 0.569
9000 kPa, x1 = 0.501 | 800 | 792 | 784 | 1.038 | 0.825 | 0.661
9000 kPa, x1 = 0.601 | 817 | 809 | 801 | 1.214 | 0.967 | 0.776
9000 kPa, x1 = 0.698 | 833 | 825 | 817 | 1.417 | 1.138 | 0.919
9000 kPa, x1 = 0.799 | 848 | 840 | 832 | 1.639 | 1.327 | 1.083
9000 kPa, x1 = 0.902 | 861 | 853 | 846 | 1.865 | 1.519 | 1.247
9000 kPa, x1 = 1 | 874 | 866 | 859 | 2.123 | 1.779 | 1.491
12000 kPa, x1 = 0.101 | 718 | 709 | 702 | 0.537 | 0.463 | 0.402
12000 kPa, x1 = 0.202 | 742 | 733 | 726 | 0.647 | 0.539 | 0.452
12000 kPa, x1 = 0.299 | 764 | 755 | 748 | 0.776 | 0.626 | 0.512
12000 kPa, x1 = 0.403 | 784 | 775 | 768 | 0.922 | 0.739 | 0.596
12000 kPa, x1 = 0.501 | 802 | 794 | 787 | 1.079 | 0.862 | 0.692
12000 kPa, x1 = 0.601 | 819 | 811 | 804 | 1.261 | 1.009 | 0.812
12000 kPa, x1 = 0.698 | 835 | 827 | 820 | 1.471 | 1.184 | 0.959
12000 kPa, x1 = 0.799 | 850 | 842 | 834 | 1.698 | 1.378 | 1.126
12000 kPa, x1 = 0.902 | 863 | 856 | 848 | 1.93 | 1.575 | 1.295
12000 kPa, x1 = 1 | 877 | 869 | 861 | 2.209 | 1.835 | 1.534
15000 kPa, x1 = 0.101 | 720 | 712 | 705 | 0.555 | 0.48 | 0.418
15000 kPa, x1 = 0.202 | 744 | 736 | 729 | 0.671 | 0.561 | 0.472
15000 kPa, x1 = 0.299 | 766 | 758 | 751 | 0.806 | 0.653 | 0.536
15000 kPa, x1 = 0.403 | 786 | 778 | 771 | 0.958 | 0.771 | 0.624
15000 kPa, x1 = 0.501 | 805 | 797 | 789 | 1.121 | 0.898 | 0.724
15000 kPa, x1 = 0.601 | 822 | 814 | 806 | 1.308 | 1.051 | 0.847
15000 kPa, x1 = 0.698 | 837 | 829 | 822 | 1.524 | 1.23 | 0.998
15000 kPa, x1 = 0.799 | 852 | 844 | 837 | 1.757 | 1.429 | 1.17
15000 kPa, x1 = 0.902 | 865 | 858 | 850 | 1.995 | 1.631 | 1.343
15000 kPa, x1 = 1 | 878 | 871 | 863 | 2.272 | 1.888 | 1.578
